{"source": "patent US8299267B2", "about": "“(3-hydroxy-4-amino-butan-2-yl) -3- (2-thiazol-2-yl-pyrrolidine-1-carbonyl) benzamide derivatives and related compounds as beta-secretase inhibitors for treating” (CoMentis, Inc., priority 2007, dated 2012)", "key": {"[1]": {"target": "memapsin 2 (Homo sapiens, UniProt P56817)", "sequence (P56817 46-501)": "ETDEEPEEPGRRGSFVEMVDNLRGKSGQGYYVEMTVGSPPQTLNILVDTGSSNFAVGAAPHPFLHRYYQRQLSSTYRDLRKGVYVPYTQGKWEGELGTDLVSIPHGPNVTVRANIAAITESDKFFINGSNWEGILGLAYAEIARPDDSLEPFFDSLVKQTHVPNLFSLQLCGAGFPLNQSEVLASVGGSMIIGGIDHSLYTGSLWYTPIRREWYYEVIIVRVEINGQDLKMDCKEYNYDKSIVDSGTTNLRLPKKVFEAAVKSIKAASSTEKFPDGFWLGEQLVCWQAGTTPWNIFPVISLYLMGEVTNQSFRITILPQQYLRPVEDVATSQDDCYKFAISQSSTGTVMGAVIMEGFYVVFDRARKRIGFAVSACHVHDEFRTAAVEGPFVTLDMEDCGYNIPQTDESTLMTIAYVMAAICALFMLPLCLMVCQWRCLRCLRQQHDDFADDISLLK", "experiment": "Inhibition of memapsin 2 beta-secretase activity toward fluorogenic substrate FS-2", "type": "biochemical", "outline": "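Memapsin 2 was preincubated with compound 20 min at pH 4, 37 °C, then reacted with fluorogenic substrate FS-2 (MCA-SEVNLDAEFK-DNP), an APP-derived Swedish-variant peptide. Inhibition was followed kinetically by fluorescence.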"}, "[2]": {"target": "cathepsin D (Homo sapiens, UniProt P07339)", "sequence (P07339 65-412, species assumed)": "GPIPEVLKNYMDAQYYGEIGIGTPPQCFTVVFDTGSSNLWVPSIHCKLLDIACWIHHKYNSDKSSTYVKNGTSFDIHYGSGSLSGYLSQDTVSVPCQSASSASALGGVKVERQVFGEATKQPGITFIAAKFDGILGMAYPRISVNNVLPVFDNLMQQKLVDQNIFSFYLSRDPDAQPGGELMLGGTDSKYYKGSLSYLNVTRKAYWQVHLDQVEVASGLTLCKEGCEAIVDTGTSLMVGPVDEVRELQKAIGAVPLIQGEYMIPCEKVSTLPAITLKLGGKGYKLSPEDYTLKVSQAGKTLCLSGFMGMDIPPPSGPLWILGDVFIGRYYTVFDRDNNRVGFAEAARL", "experiment": "Inhibition of cathepsin D activity (substrate peptide ELDLAVEFWHDR, MALDI-TOF)", "type": "biochemical", "method": "[The procedure below names another target; the source lists this target under the same test.] (§1) A substrate peptide NH3-ELDLAVEFWHDR-CO2 (SEQ ID NO.: 1) was dissolved at 2 mg/mL in 10% glacial acetic acid and diluted into 0.009M NaOH to obtain μM concentration at pH 4.1. After equilibration at 37 degrees C., the reactions were initiated by the addition of an aliquot of memapsin 2. Aliquots were removed at time intervals, and combined with an equal volume of MALDI-TOF matrix (α-hydroxycinnamic acid in acetone, 20 mg/mL) and immediately spotted in duplicate onto a stainless-steel MALDI sample plate. MALDI-TOF mass spectrometry was performed on a PE Biosystems Voyager DE. The instrument was operated at 25,000 accelerating volts in positive mode with a 150 ns delay. Ions with a mass-to-charge ratio (m/z) were detected in the range of 650-2000 atomic mass units. Data were analyzed by the Voyager Data Explorer module to obtain ion intensity data for mass species of substrates and corresponding products in a given mixture. Relative product formation was calculated as the ratio of signal intensity of the product to the sum of signal intensities of both product and the corresponding substrate. Relative product formed per unit time was obtained from non-linear regression analysis of the data representing the initial 15% formation of product using the model: 1−e^−kT, where k was the relative hydrolytic rate constant and T was time in seconds. Initial rates were expressed relative to uninhibited controls and fit to a tight-binding model of competitive inhibition as above."}, "[3]": {"target": "T1, memapsin 1 (Homo sapiens, UniProt Q9Y5Z0)", "T1 sequence (Q9Y5Z0 63-518)": "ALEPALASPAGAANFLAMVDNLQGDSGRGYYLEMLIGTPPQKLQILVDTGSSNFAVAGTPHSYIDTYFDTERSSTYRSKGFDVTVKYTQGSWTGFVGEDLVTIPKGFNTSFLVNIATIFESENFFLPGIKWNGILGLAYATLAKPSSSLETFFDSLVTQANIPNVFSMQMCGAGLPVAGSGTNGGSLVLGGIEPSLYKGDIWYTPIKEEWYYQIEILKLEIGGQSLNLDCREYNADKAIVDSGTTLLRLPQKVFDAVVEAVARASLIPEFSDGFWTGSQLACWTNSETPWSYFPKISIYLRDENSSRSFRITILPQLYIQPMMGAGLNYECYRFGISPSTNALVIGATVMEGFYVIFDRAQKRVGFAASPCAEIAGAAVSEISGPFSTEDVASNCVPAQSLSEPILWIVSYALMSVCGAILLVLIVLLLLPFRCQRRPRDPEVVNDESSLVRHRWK", "experiment": "Inhibition of memapsin 1 beta-secretase activity (substrate peptide ELDLAVEFWHDR, MALDI-TOF)", "type": "biochemical", "method": "[The procedure below names another target; the source lists this target under the same test.] as §1"}, "[4]": {"test_system": "Aβ production in Chinese hamster ovary cells that over-express human APP695 with the London and Swedish mutations", "experiment": "Cellular Aβ IC50 determination (Aβ40 sandwich ELISA)", "type": "cell-based", "conditions": "Cricetulus griseus", "outline": "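APP695 (London/Swedish)-overexpressing CHO cells were treated 48 h after seeding with serial dilutions from near 4 μM top concentration (0.4% DMSO) for 24 h at 37 °C. Secreted Aβ40 was quantified by sandwich ELISA relative to controls and fit to a 4-parameter IC50 model.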"}, "[5]": {"conditions": "memapsin 2, pH 4, 37° C., 20 minutes pre-incubation, substrate FS-2, read-out: M2Ki"}, "[6]": {"conditions": "cathepsin D, pH 4.1, 37 degrees C., read-out: CDKi"}, "[7]": {"conditions": "memapsin 1, pH 4.1, 37 degrees C., read-out: M1Ki"}, "[8]": {"conditions": "Aβ40 in CHO cells over-expressing human APP695, 24 h incubation"}}, "note": "pIC50, pKi: −log10 of the molar value. Read-outs that look alike come from different tables or passages of the source."}
{"compound": "Cc1csc([C@H]2CCCN2C(=O)c2cccc(C(=O)N[C@@H](Cc3ccccc3)[C@H](O)CNCc3cncc(C(C)C)c3)c2)n1", "note": "[Compound 2, N-((2S,3R)-3-hydroxy-4-((5-isopropylpyridin-3-yl)methylamino)-1-phenylbutan-2-yl)-3-((R)-2-(4-methylthiazol-2-yl)pyrrolidine-1-carbonyl)benzamide]", "values": [{"measurement": "pKi", "setting": "[1]; [5]", "value": "> 7.00"}, {"measurement": "pKi", "setting": "[2]; [6]", "value": "6.30 to 6.52"}, {"measurement": "pKi", "setting": "[3]; [7]", "value": "> 6.52"}, {"measurement": "pIC50", "setting": "[4]; [8]", "value": "> 6.52"}]}
{"compound": "COc1cccc(CNC[C@@H](O)[C@H](Cc2ccccc2)NC(=O)c2cc(C)cc(C(=O)N3CCC[C@@H]3c3nc(C)cs3)c2)c1", "note": "[Compound 6, N-((2S,3R)-3-hydroxy-4-(3-methoxybenzylamino)-1-phenylbutan-2-yl)-3-methyl-5-((R)-2-(4-methylthiazol-2-yl)pyrrolidine-1-carbonyl)benzamide]", "values": [{"measurement": "pKi", "setting": "[1]; [5]", "value": "> 7.00"}, {"measurement": "pKi", "setting": "[2]; [6]", "value": "6.30 to 6.52"}, {"measurement": "pKi", "setting": "[3]; [7]", "value": "< 6.30"}, {"measurement": "pIC50", "setting": "[4]; [8]", "value": "> 6.52"}]}
{"compound": "Cc1csc([C@H]2CCCN2C(=O)c2cccc(C(=O)N[C@@H](Cc3ccccc3)[C@H](O)CNCc3cccc(C(F)(F)F)c3)c2)n1", "note": "[Compound 9, N-((2S,3R)-3-hydroxy-1-phenyl-4-(3-(trifluoromethyl)benzylamino)butan-2-yl)-3-((R)-2-(4-methylthiazol-2-yl)pyrrolidine-1-carbonyl)benzamide]", "values": [{"measurement": "pKi", "setting": "[1]; [5]", "value": "> 7.00"}, {"measurement": "pKi", "setting": "[2]; [6]", "value": "< 6.30"}, {"measurement": "pKi", "setting": "[3]; [7]", "value": "6.30 to 6.52"}, {"measurement": "pIC50", "setting": "[4]; [8]", "value": "> 6.52"}]}
{"compound": "Cc1csc([C@H]2CCCN2C(=O)c2cccc(C(=O)N[C@@H](Cc3ccccc3)[C@H](O)CNCc3cccc(C(C)(C)C)c3)c2)n1", "note": "[Compound 10, N-((2S,3R)-4-(3-tert-butylbenzylamino)-3-hydroxy-1-phenylbutan-2-yl)-3-((R)-2-(4-methylthiazol-2-yl)pyrrolidine-1-carbonyl)benzamide]", "values": [{"measurement": "pKi", "setting": "[1]; [5]", "value": "> 7.00"}, {"measurement": "pKi", "setting": "[2]; [6]", "value": "< 6.30"}, {"measurement": "pKi", "setting": "[3]; [7]", "value": "6.30 to 6.52"}, {"measurement": "pIC50", "setting": "[4]; [8]", "value": "> 6.52"}]}
{"compound": "Cc1cc(C(=O)N[C@@H](Cc2ccccc2)[C@H](O)CNCc2cccc(C(F)(F)F)c2)cc(C(=O)N2CCC[C@@H]2c2nc(C)cs2)c1", "note": "[Compound 12, N-((2S,3R)-3-hydroxy-1-phenyl-4-(3-(trifluoromethyl)benzylamino)butan-2-yl)-3-methyl-5-((R)-2-(4-methylthiazol-2-yl)pyrrolidine-1-carbonyl)benzamide]", "values": [{"measurement": "pKi", "setting": "[1]; [5]", "value": "> 7.00"}, {"measurement": "pKi", "setting": "[2]; [6]", "value": "< 6.30"}, {"measurement": "pKi", "setting": "[3]; [7]", "value": "> 6.52"}, {"measurement": "pIC50", "setting": "[4]; [8]", "value": "> 6.52"}]}
{"compound": "Cc1cc(C(=O)N[C@@H](Cc2ccccc2)[C@H](O)CNCc2cccc(C(C)(C)C)c2)cc(C(=O)N2CCC[C@@H]2c2nc(C)cs2)c1", "note": "[Compound 14, N-((2S,3R)-4-(3-tert-butylbenzylamino)-3-hydroxy-1-phenylbutan-2-yl)-3-methyl-5-((R)-2-(4-methylthiazol-2-yl)pyrrolidine-1-carbonyl)benzamide]", "values": [{"measurement": "pKi", "setting": "[1]; [5]", "value": "> 7.00"}, {"measurement": "pKi", "setting": "[2]; [6]", "value": "> 6.52"}, {"measurement": "pKi", "setting": "[3]; [7]", "value": "> 6.52"}, {"measurement": "pIC50", "setting": "[4]; [8]", "value": "> 6.52"}]}
{"compound": "COc1cccc(CNC[C@@H](O)[C@H](Cc2ccccc2)NC(=O)c2cccc(C(=O)N3COC[C@@H]3c3nc(C)cs3)c2)c1", "note": "[Compound 15, N-((2S,3R)-3-hydroxy-4-(3-methoxybenzylamino)-1-phenylbutan-2-yl)-3-((R)-4-(4-methylthiazol-2-yl)oxazolidine-3-carbonyl)benzamide]", "values": [{"measurement": "pKi", "setting": "[1]; [5]", "value": "> 7.00"}, {"measurement": "pKi", "setting": "[2]; [6]", "value": "> 6.52"}, {"measurement": "pKi", "setting": "[3]; [7]", "value": "6.30 to 6.52"}, {"measurement": "pIC50", "setting": "[4]; [8]", "value": "> 6.52"}]}
{"compound": "Cc1coc([C@H]2CCCN2C(=O)c2cc(C(=O)N[C@@H](Cc3ccccc3)[C@H](O)CNCc3cccc(C(F)(F)F)c3)ccn2)n1", "note": "[Compound 94, N-((2S,3R)-3-hydroxy-1-phenyl-4-(3-(trifluoromethyl)benzylamino)butan-2-yl)-2-((R)-2-(4-methyloxazol-2-yl)pyrrolidine-1-carbonyl)isonicotinamide]", "values": [{"measurement": "pKi", "setting": "[1]; [5]", "value": "> 7.00"}, {"measurement": "pIC50", "setting": "[4]; [8]", "value": "> 6.52"}]}
{"compound": "Cc1coc([C@H]2CCCN2C(=O)c2cc(CF)cc(C(=O)N[C@@H](Cc3ccccc3)[C@H](O)CNCc3cccc(C(C)(C)C)c3)c2)n1", "note": "[Compound 95, N-((2S,3R)-4-(3-tert-butylbenzylamino)-3-hydroxy-1-phenylbutan-2-yl)-3-(fluoromethyl)-5-((R)-2-(4-methyloxazol-2-yl)pyrrolidine-1-carbonyl)benzamide]", "values": [{"measurement": "pKi", "setting": "[1]; [5]", "value": "> 7.00"}, {"measurement": "pIC50", "setting": "[4]; [8]", "value": "> 6.52"}]}
{"compound": "Cc1coc([C@H]2CCCN2C(=O)c2cccc(C(=O)N[C@@H](Cc3ccccc3)[C@H](O)CNCc3cncc(C(C)(F)F)c3)c2)n1", "note": "[Compound 102, N-((2S,3R)-4-((5-(1,1-difluoroethyl)pyridin-3-yl)methylamino)-3-hydroxy-1-phenylbutan-2-yl)-3-((R)-2-(4-methyloxazol-2-yl)pyrrolidine-1-carbonyl)benzamide]", "values": [{"measurement": "pKi", "setting": "[1]; [5]", "value": "> 7.00"}, {"measurement": "pIC50", "setting": "[4]; [8]", "value": "> 6.52"}]}
{"compound": "Cc1coc([C@H]2CCCN2C(=O)c2cccc(C(=O)N[C@@H](Cc3ccccc3)[C@H](O)CNCc3cncc(C(F)(F)F)c3)c2)n1", "note": "[Compound 103, N-((2S,3R)-3-hydroxy-1-phenyl-4-((5-(trifluoromethyl)pyridin-3-yl)methylamino)butan-2-yl)-3-((R)-2-(4-methyloxazol-2-yl)pyrrolidine-1-carbonyl)benzamide]", "values": [{"measurement": "pKi", "setting": "[1]; [5]", "value": "> 7.00"}, {"measurement": "pIC50", "setting": "[4]; [8]", "value": "> 6.52"}]}
{"compound": "Cc1cc(C(=O)N[C@@H](Cc2ccccc2)[C@H](O)CNCc2cccc(C(C)(F)F)c2)cc(C(=O)N2CCC[C@@H]2c2nc(C)co2)c1", "note": "[Compound 104, N-((2S,3R)-4-(3-(1,1-difluoroethyl)benzylamino)-3-hydroxy-1-phenylbutan-2-yl)-3-methyl-5-((R)-2-(4-methyloxazol-2-yl)pyrrolidine-1-carbonyl)benzamide]", "values": [{"measurement": "pKi", "setting": "[1]; [5]", "value": "> 7.00"}, {"measurement": "pIC50", "setting": "[4]; [8]", "value": "> 6.52"}]}
{"compound": "C=C(C)c1cccc(CNC[C@@H](O)[C@H](Cc2ccccc2)NC(=O)c2cccc(C(=O)N3CCC[C@@H]3c3nc(C)co3)c2)c1", "note": "[Compound 105, N-((2S,3R)-3-hydroxy-1-phenyl-4-(3-(prop-1-en-2-yl)benzylamino)butan-2-yl)-3-((R)-2-(4-methyloxazol-2-yl)pyrrolidine-1-carbonyl)benzamide]", "values": [{"measurement": "pKi", "setting": "[1]; [5]", "value": "> 7.00"}, {"measurement": "pIC50", "setting": "[4]; [8]", "value": "> 6.52"}]}
{"compound": "Cc1csc([C@H]2CCCN2C(=O)c2cccc(C(=O)N[C@@H](Cc3ccccc3)[C@H](O)CNCc3cccc(C(F)(F)F)c3)c2)n1", "note": "[N-((2S,3R)-3-hydroxy-1-phenyl-4-(3-(trifluoromethyl)benzylamino)butan-2-yl)-3-((R)-2-(4-methylthiazol-2-yl)pyrrolidine-1-carbonyl)benzamide]", "values": [{"measurement": "pKi", "setting": "[1]; read-out: M2 Ki", "value": 8.15}, {"measurement": "pKi", "setting": "[2]; read-out: CathD Ki", "value": 5.97}, {"measurement": "pKi", "setting": "[3]; read-out: M1 Ki", "value": 6.08}, {"measurement": "pIC50", "setting": "[4]; cellular Aβ", "value": 7.64}]}
